Assay results from PubChem BioAssay AID2060882 (Molecular Pharmacology Branch, DTP, NCI, 2025).

Test system: 898857-211-R-J1-PDC complex spheroids, growth % test/control
Test: Anticancer human tumor 898857-211-R-J1-PDC patient-derived melanoma cell line growth inhibition [RAS]
Conditions: for IC50: curve of first compound; for viability, T/C: stronger effect = lower value; active means viability on the fitted dose curve at most 10% of control; inactive means the rest
In short: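 Multi-cell-type spheroids: tumor cells plus HUVEC endothelial cells and mesenchymal stem cells. RAS-pathway inhibitors were combined with targeted agents, each dosed in half-log steps down from clinical Cmax, or from 10 microM when Cmax was unknown.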

[1] = second compound 0.000949 µM, first compound 0.0316 µM
[2] = second compound 0.000949 µM, first compound 0.1 µM
[3] = second compound 0.000949 µM, first compound 0.316 µM
[4] = second compound 0.000949 µM, first compound 1 µM
[5] = second compound 0.000949 µM, first compound 3.16 µM
[6] = second compound 0.000949 µM, first compound 10 µM
[7] = second compound 0.003 µM, first compound 0.0316 µM
[8] = second compound 0.003 µM, first compound 0.1 µM
[9] = second compound 0.003 µM, first compound 0.316 µM
[10] = second compound 0.003 µM, first compound 1 µM
[11] = second compound 0.003 µM, first compound 3.16 µM
[12] = second compound 0.003 µM, first compound 10 µM
[13] = second compound 0.00949 µM, first compound 0.0316 µM
[14] = second compound 0.00949 µM, first compound 0.1 µM
[15] = second compound 0.00949 µM, first compound 0.316 µM
[16] = second compound 0.00949 µM, first compound 1 µM
[17] = second compound 0.00949 µM, first compound 3.16 µM
[18] = second compound 0.00949 µM, first compound 10 µM
[19] = second compound 0.03 µM, first compound 0.0316 µM
[20] = second compound 0.03 µM, first compound 0.1 µM
[21] = second compound 0.03 µM, first compound 0.316 µM
[22] = second compound 0.03 µM, first compound 1 µM
[23] = second compound 0.03 µM, first compound 3.16 µM
[24] = second compound 0.03 µM, first compound 10 µM
[25] = second compound 0.0949 µM, first compound 0.0316 µM
[26] = second compound 0.0949 µM, first compound 0.1 µM
[27] = second compound 0.0949 µM, first compound 0.316 µM
[28] = second compound 0.0949 µM, first compound 1 µM
[29] = second compound 0.0949 µM, first compound 3.16 µM
[30] = second compound 0.0949 µM, first compound 10 µM
[31] = second compound 0.3 µM, first compound 0.0316 µM
[32] = second compound 0.3 µM, first compound 0.1 µM
[33] = second compound 0.3 µM, first compound 0.316 µM
[34] = second compound 0.3 µM, first compound 1 µM
[35] = second compound 0.3 µM, first compound 3.16 µM
[36] = second compound 0.3 µM, first compound 10 µM
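Further: spheroids exposed to compound for seven days before readout.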
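Wherever viability, T/C is given: 100% = DMSO vehicle control wells.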

CC(=O)OC12COC1CC(O)C1(C)C(=O)C(O)C3=C(C)C(OC(=O)C(O)C(NC(=O)OC(C)(C)C)c4ccccc4)CC(O)(C(OC(=O)c4ccccc4)C21)C3(C)C (stereo unspecified) + CCn1c(-c2cccnc2C(C)OC)c2c3cc(ccc31)N1CCOC(CC(NC(=O)C(C(C)C)N(C)C(=O)C3(F)CCN(C(=O)C#CC(C)(C)N(C)C)CC3)C(=O)N3CCCC(N3)C(=O)OCC(C)(C)C2)C1
inactive: viability, T/C [1] 10.8% | viability, T/C [2] 9.24% | viability, T/C [3] 8.35% | viability, T/C [4] 12.8% | viability, T/C [5] 18.6% | viability, T/C [6] 20.4% | viability, T/C [7] 10.1% | viability, T/C [8] 11.5% | viability, T/C [9] 11.4% | viability, T/C [10] 12.4% | viability, T/C [11] 14% | viability, T/C [12] 20.9% | viability, T/C [13] 7.95% | viability, T/C [14] 8.82% | viability, T/C [15] 13.5% | viability, T/C [16] 11.8% | viability, T/C [17] 12.9% | viability, T/C [18] 20.2% | viability, T/C [19] 8.31% | viability, T/C [20] 10.6% | viability, T/C [21] 9.59% | viability, T/C [22] 13.5% | viability, T/C [23] 16.6% | viability, T/C [24] 15.3% | viability, T/C [25] 8.5% | viability, T/C [26] 10.2% | viability, T/C [27] 10.7% | viability, T/C [28] 11.4% | viability, T/C [29] 15.7% | viability, T/C [30] 14.4%
active: viability, T/C [31] 8.04% | viability, T/C [32] 7.55% | viability, T/C [33] 8.89% | viability, T/C [34] 9.35% | viability, T/C [35] 11.3% | viability, T/C [36] 7.88%
< 31.6 nM: IC50 (second compound 0.000949 µM) | IC50 (second compound 0.003 µM) | IC50 (second compound 0.00949 µM) | IC50 (second compound 0.03 µM) | IC50 (second compound 0.0949 µM) | IC50 (second compound 0.3 µM)

NC1c2ccccc2OC12CCN(c1cnc3c(N4CCCc5ncccc54)n[nH]c3n1)CC2 (stereo unspecified) + CCn1c(-c2cccnc2C(C)OC)c2c3cc(ccc31)N1CCOC(CC(NC(=O)C(C(C)C)N(C)C(=O)C3(F)CCN(C(=O)C#CC(C)(C)N(C)C)CC3)C(=O)N3CCCC(N3)C(=O)OCC(C)(C)C2)C1
> 10000 nM: IC50 (second compound 0.000949 µM) | IC50 (second compound 0.003 µM) | IC50 (second compound 0.00949 µM) | IC50 (second compound 0.03 µM) | IC50 (second compound 0.0949 µM)
inactive: viability, T/C [1] 91.6% | viability, T/C [2] 94.3% | viability, T/C [3] 99.9% | viability, T/C [4] 90.7% | viability, T/C [5] 101% | viability, T/C [6] 70.9% | viability, T/C [7] 95% | viability, T/C [8] 88.7% | viability, T/C [9] 90.4% | viability, T/C [10] 90.9% | viability, T/C [11] 97.9% | viability, T/C [12] 67.8% | viability, T/C [13] 99% | viability, T/C [14] 106% | viability, T/C [15] 101% | viability, T/C [16] 87.2% | viability, T/C [17] 89% | viability, T/C [18] 74.3% | viability, T/C [19] 103% | viability, T/C [20] 100% | viability, T/C [21] 101% | viability, T/C [22] 96.6% | viability, T/C [23] 95.1% | viability, T/C [24] 63.8% | viability, T/C [25] 82.9% | viability, T/C [26] 87.2% | viability, T/C [27] 97.7% | viability, T/C [28] 91.1% | viability, T/C [29] 84.8% | viability, T/C [30] 55.4% | viability, T/C [31] 73.3% | viability, T/C [32] 77.6% | viability, T/C [33] 67.9% | viability, T/C [34] 72.9% | viability, T/C [35] 72.6% | viability, T/C [36] 44.1%
7880 nM: IC50 (second compound 0.3 µM)

Nc1ccn(C2OC(CO)C(O)C2(F)F)c(=O)n1 (stereo unspecified) + CCn1c(-c2cccnc2C(C)OC)c2c3cc(ccc31)N1CCOC(CC(NC(=O)C(C(C)C)N(C)C(=O)C3(F)CCN(C(=O)C#CC(C)(C)N(C)C)CC3)C(=O)N3CCCC(N3)C(=O)OCC(C)(C)C2)C1
active: viability, T/C [1] 5.77% | viability, T/C [2] 4.12% | viability, T/C [3] 5.73% | viability, T/C [4] 5.16% | viability, T/C [7] 6.22% | viability, T/C [8] 5.43% | viability, T/C [9] 4.28% | viability, T/C [10] 4.09% | viability, T/C [13] 5.43% | viability, T/C [14] 3.4% | viability, T/C [15] 4.91% | viability, T/C [16] 4.53% | viability, T/C [19] 4.86% | viability, T/C [20] 4.53% | viability, T/C [21] 4.23% | viability, T/C [22] 3.48% | viability, T/C [25] 4.15% | viability, T/C [26] 3.36% | viability, T/C [27] 3.77% | viability, T/C [28] 4.54% | viability, T/C [31] 3.88% | viability, T/C [32] 3.1% | viability, T/C [33] 3.62% | viability, T/C [34] 2.98%
6.76 nM: IC50 (second compound 0.000949 µM)
6.02 nM: IC50 (second compound 0.03 µM)
3.59 nM: IC50 (second compound 0.3 µM)
7.19 nM: IC50 (second compound 0.003 µM)
inactive: viability, T/C (second compound 0.000949 µM, first compound 0.00316 µM) 92.8% | viability, T/C (second compound 0.000949 µM, first compound 0.01 µM) 27.9% | viability, T/C (second compound 0.003 µM, first compound 0.00316 µM) 100% | viability, T/C (second compound 0.003 µM, first compound 0.01 µM) 29.9% | viability, T/C (second compound 0.00949 µM, first compound 0.00316 µM) 95.7% | viability, T/C (second compound 0.00949 µM, first compound 0.01 µM) 25.6% | viability, T/C (second compound 0.03 µM, first compound 0.00316 µM) 86.8% | viability, T/C (second compound 0.03 µM, first compound 0.01 µM) 21% | viability, T/C (second compound 0.0949 µM, first compound 0.00316 µM) 86% | viability, T/C (second compound 0.0949 µM, first compound 0.01 µM) 15.7% | viability, T/C (second compound 0.3 µM, first compound 0.00316 µM) 54.6% | viability, T/C (second compound 0.3 µM, first compound 0.01 µM) 12.4%
5.71 nM: IC50 (second compound 0.0949 µM)
6.7 nM: IC50 (second compound 0.00949 µM)
